# Source: PMC6150237, “Study of Absorption Characteristics of the Total Saponins from Radix Ilicis Pubescentis in an In Situ Single-Pass Intestinal Perfusion (SPIP) Rat Model by Using Ultra Performance Liquid Chromatography (UPLC)” (Molecules : A Journal of Synthetic Chemistry and Natural …, 2017)
# Values joined by “and” are separate entries in the source; they are usually repeats but may differ in a detail not shown here. Identical values can stand only once. “Also recorded” adds a separate entry of the source.
# How the values were obtained:
# Format in all cases: in vivo
# [1] = test system: rat small intestine (duodenum, jejunum, ileum); experiment: In situ single-pass intestinal perfusion (SPIP), saponins administrated in monomer forms; design: key to Papp / Ka: -: no absorption; conditions: for intestinal absorption of monomers: small intestine, result in words
# Method: (§1) MDQ-TS perfusion samples at low, middle, and high concentration levels of 1.25, 2.5, and 5.0 mg·mL^−1 were prepared by separately dissolving MDQ-TS in the minimum amount of DMSO and diluted with K-R buffer solution. The amount of DMSO was 0.5% in the final perfusion solutions. C1, C2, C3, C4, DC1, and DC2 perfusion samples with the concentration equivalent to the amount contained in 2.5 mg·mL^−1 of MDQ-TS were individually prepared in the same way. Verapamil, amantadine and EDTA were directly dissolved in the MDQ-TS perfusate with terminal concentrations of 200 μmol·L^−1, 2.5 mmol·L^−1, and 2.5 mmol·L^−1, accordingly, and used for investigating the mechanisms involved for absorption.
# (§2) In situ single-pass intestinal perfusion (SPIP) studies were performed using an experimental design adapted from the literature with some modifications. Briefly, male Sprague-Dawley rats weighing 180–220 g were acclimatized for at least one week before the experiment, and fasted for 18 h with free access to water before the perfusion experiment. Rats were anesthetized with an intraperitoneal injection of urethane (30 mg·kg^−1 body weight), and kept on a homeothermic blanket to maintain normal body temperature. The abdomen was opened with a midline longitudinal incision, and three segments of rat intestine (duodenum, jejunum, and ileum) of approximately 10 cm each were carefully cannulated on two ends with plastic tubing. Initially, the perfusion solution free of drug (37 °C) was pumped by peristaltic pump (BT100-1F, Longer Pump Co., Baoding, China) through the cannulated segments at a flow rate of 1 mL/min for approximately 30 min in order to clean out any residual debris. Secondly, the perfusion solution containing a known concentration of substance (C1, C2, C3, C4, DC1, DC2, and MDQ-TS) was perfused at 37 °C through the intestinal lumen at a constant flow rate of 0.2 mL/min. The first 20 min of period corresponds to steady state, i.e., when the substance is in equilibrium with the intestinal membrane. After steady state, samples were collected from distal portion of duodenum, jejunum and ileum at 10 min intervals (0–10, 10–20, 20–30, 30–40, 40–50, 50–60 min) in pre-weighted vials. Samples were immediately frozen at −20 °C until analysis by validated UPLC. During the experiment, care was taken to avoid disturbance of the circulatory system and the exposed segment was covered with a piece of sterilized gauze to keep it warm and moist by frequent application of warm (37 °C) saline. The intestinum tenue maintained its viability and intact state without disrupting the blood supply throughout the experimental period. Finally, animals were sacrificed after depth anesthesia by intraperitoneal injection of urethane, according to protocols for euthanasia in experimental animals. After death, the intestinal segment was removed for measurements of length and inside diameter.
# (§3) The net water flux in the in situ perfusion studies (water absorption and efflux in the intestinal segment) was determined by gravimetric method. The effective absorption rate constant (Ka) and effective apparent permeability (Papp) of compounds in the intestinal segments were calculated according to the following mathematical expression:(1) Ka=(1−CoutQout/CinQin)Q/V (2) Papp=−Qln(CoutQout/CinQin)/2πrl where Cin and Cout are the concentration of test drug in the effluent perfusate through the inlet and outlet tube (μg·mL^−1), respectively. Qin and Qout represent the inlet and outlet volume of effluent perfusate (mL), respectively. Q is the volume flow rate of perfusion (mL·h^−1). V is the volume of the intestinal segment concerned (mL). 2πrl is the area of the mass transfer surface of intestinal segment concerned (cm^2).
# [2] = test system: rat small intestine (duodenum, jejunum, ileum); experiment: In situ single-pass intestinal perfusion (SPIP), saponins administrated in MDQ-TS form; design: key: -: no absorption
# Method: as §1, §2, §3
# rat duodenum = experiment: SPIP of MDQ-TS with or without amantadine (endocytosis inhibitor); conditions: MDQ-TS 2.5 mg/mL; for decrease of absorption compared with non-Amantadine added group: amantadine 2.5 mmol·L^−1
# Method: as §1, §2
# as §3, with “(cm^2). […]” for “(cm^2).”
# [3] = monomer form, duodenum, concentration equivalent to 2.5 mg·mL^−1 MDQ-TS, n = 5
# [4] = MDQ-TS form 1.25 mg·mL^−1, duodenum, n = 5
# [5] = MDQ-TS form 1.25 mg·mL^−1, ileum, n = 5
# [6] = MDQ-TS form 1.25 mg·mL^−1, jejunum, n = 5
# [7] = MDQ-TS form 2.5 mg·mL^−1, duodenum, n = 5
# [8] = MDQ-TS form 2.5 mg·mL^−1, ileum, n = 5
# [9] = MDQ-TS form 2.5 mg·mL^−1, jejunum, n = 5
# [10] = MDQ-TS form 5.0 mg·mL^−1, duodenum, n = 5
# [11] = MDQ-TS form 5.0 mg·mL^−1, ileum, n = 5
# [12] = MDQ-TS form 5.0 mg·mL^−1, jejunum, n = 5
# [13] = administrated in MDQ-TS form, summary bound (except DC2 in 1.25 mg·mL^−1 MDQ-TS group)
# [14] = MDQ-TS form 1.25 mg·mL^−1, duodenum, symbol
# [15] = MDQ-TS form 1.25 mg·mL^−1, ileum, symbol
# [16] = MDQ-TS form 1.25 mg·mL^−1, jejunum, symbol
SMILES,"Ka [2, 4]","Papp [2, 4]","Ka [2, 5]","Papp [2, 5]","Ka [2, 6]","Papp [2, 6]","Ka [2, 7]","Papp [2, 7]","Ka [2, 8]","Papp [2, 8]","Ka [2, 9]","Papp [2, 9]","Ka [2, 10]","Papp [2, 10]","Ka [2, 11]","Papp [2, 11]","Ka [2, 12]","Papp [2, 12]","Papp [2, 13]","Ka ([1]; monomer form, duodenum, symbol)",other results
"C[C@H]1CC[C@]2(C(=O)O)CC[C@]3(C)C(=CC[C@@H]4[C@@]5(C)CC[C@H](O[C@@H]6OC[C@@H](O)[C@H](O)[C@H]6O[C@@H]6O[C@H](CO)[C@@H](O)[C@H](O)[C@H]6O)C(C)(C)[C@@H]5CC[C@]43C)[C@@H]2[C@]1(C)O [C3, ilexsaponin B1]",1.16 ± 0.26 ×10^−2 min^−1,0.24 ± 0.10 ×10^−2 cm·min^−1,1.04 ± 0.11 ×10^−2 min^−1,0.18 ± 0.01 ×10^−2 cm·min^−1,0.94 ± 0.12 ×10^−2 min^−1,0.17 ± 0.04 ×10^−2 cm·min^−1,2.19 ± 0.52 ×10^−2 min^−1,0.36 ± 0.06 ×10^−2 cm·min^−1,3.77 ± 0.41 ×10^−2 min^−1,0.42 ± 0.03 ×10^−2 cm·min^−1,3.82 ± 0.49 ×10^−2 min^−1,0.40 ± 0.13 ×10^−2 cm·min^−1,1.80 ± 0.97 ×10^−2 min^−1,0.39 ± 0.24 ×10^−2 cm·min^−1,1.66 ± 0.95 ×10^−2 min^−1,0.29 ± 0.15 ×10^−2 cm·min^−1,2.48 ± 0.86 ×10^−2 min^−1,0.40 ± 0.24 ×10^−2 cm·min^−1,> 0.0012 cm/min,,"Papp ([1]; administered in monomer forms, summary bound): > 0.0012 cm/min; Ka [1, 3]: 1.49 ± 0.36 ×10^−2 min^−1; Papp [1, 3]: 0.23 ×10^−2 cm·min^−1 and 0.23 ± 0.02 ×10^−2 cm·min^−1; Ka ([1]; monomer form, ileum, n = 5): 1.38 ± 0.06 ×10^−2 min^−1; Papp ([1]; monomer form, ileum, n = 5): 0.21 ± 0.06 ×10^−2 cm·min^−1; Ka ([1]; monomer form, jejunum, n = 5): 1.56 ± 0.30 ×10^−2 min^−1; Papp ([1]; monomer form, jejunum, n = 5): 0.23 ×10^−2 cm·min^−1 and 0.23 ± 0.05 ×10^−2 cm·min^−1; permeability classification ([1]; monomers, Papp > 0.12 × 10^−2 cm·min^−1 classified as completely absorbed (highly permeable)): highly permeable"
"C[C@@H]1O[C@@H](O[C@H]2[C@H](O[C@H]3[C@H](O[C@H]4CC[C@]5(C)[C@H]6CC=C7[C@H]8[C@](C(=O)O)(CC[C@H](C)[C@@]8(C)O)CC[C@@]7(C)[C@]6(C)CC[C@H]5C4(C)C)OC[C@@H](O)[C@@H]3O)O[C@H](CO)[C@@H](O)[C@@H]2O)[C@H](O)[C@H](O)[C@H]1O [C4, ilexsaponin B2]",1.04 ± 0.31 ×10^−2 min^−1,0.20 ± 0.09 ×10^−2 cm·min^−1,0.83 ± 0.28 ×10^−2 min^−1,0.14 ± 0.04 ×10^−2 cm·min^−1,0.84 ± 0.47 ×10^−2 min^−1,0.14 ± 0.05 ×10^−2 cm·min^−1,1.94 ± 0.50 ×10^−2 min^−1,0.42 ± 0.05 ×10^−2 cm·min^−1,2.53 ± 0.29 ×10^−2 min^−1,0.40 ± 0.03 ×10^−2 cm·min^−1,3.19 ± 0.56 ×10^−2 min^−1,0.49 ± 0.03 ×10^−2 cm·min^−1,1.87 ± 0.86 ×10^−2 min^−1,0.40 ± 0.22 ×10^−2 cm·min^−1,1.52 ± 0.92 ×10^−2 min^−1,0.26 ± 0.15 ×10^−2 cm·min^−1,1.92 ± 0.61 ×10^−2 min^−1,0.45 ± 0.18 ×10^−2 cm·min^−1,> 0.0012 cm/min,-,"Papp ([1]; monomer form, duodenum, symbol): -; Ka ([1]; monomer form, ileum, symbol): -; Papp ([1]; monomer form, ileum, symbol): -; Ka ([1]; monomer form, jejunum, symbol): -; Papp ([1]; monomer form, jejunum, symbol): -; intestinal absorption of monomers ([1]; monomer form): could not be absorbed by small intestine at all; also recorded: no absorption; also recorded: could not be absorbed by the gastrointestinal tract at all; decrease of absorption compared with non-Amantadine added group (rat duodenum): 31%"
"C[C@@H]1O[C@@H](O[C@H]2[C@H](O[C@H]3[C@H](O[C@H]4CC[C@]5(C)[C@H]6CC=C7[C@H]8[C@](C(=O)O[C@@H]9O[C@H](CO)[C@@H](O)[C@H](O)[C@H]9O)(CC[C@H](C)[C@@]8(C)O)CC[C@@]7(C)[C@]6(C)CC[C@H]5C4(C)C)OC[C@@H](O)[C@@H]3O)O[C@H](CO)[C@@H](O)[C@@H]2O)[C@H](O)[C@H](O)[C@H]1O [DC2, ilexoside O]",,,,,,,0.62 ± 0.13 ×10^−2 min^−1,0.16 ± 0.06 ×10^−2 cm·min^−1,1.54 ± 0.85 ×10^−2 min^−1,0.19 ± 0.08 ×10^−2 cm·min^−1,1.23 ± 0.46 ×10^−2 min^−1,0.21 ± 0.08 ×10^−2 cm·min^−1,1.27 ± 0.44 ×10^−2 min^−1,0.25 ± 0.16 ×10^−2 cm·min^−1,1.14 ± 0.45 ×10^−2 min^−1,0.19 ± 0.07 ×10^−2 cm·min^−1,1.73 ± 0.66 ×10^−2 min^−1,0.26 ± 0.17 ×10^−2 cm·min^−1,> 0.0012 cm/min,-,"Papp ([1]; monomer form, duodenum, symbol): -; Ka ([1]; monomer form, ileum, symbol): -; Papp ([1]; monomer form, ileum, symbol): -; Ka ([1]; monomer form, jejunum, symbol): -; Papp ([1]; monomer form, jejunum, symbol): -; intestinal absorption of monomers ([1]; monomer form): could not be absorbed by small intestine at all; also recorded: no absorption; also recorded: could not be absorbed by the gastrointestinal tract at all; Ka [2, 14]: -; Papp [2, 14]: -; Ka [2, 15]: -; Papp [2, 15]: -; Ka [2, 16]: -; Papp [2, 16]: -; decrease of absorption compared with non-Amantadine added group (rat duodenum): 100%; absorption when co-perfusion with Amantadine (rat duodenum; amantadine 2.5 mmol·L^−1, result in words): completely inhibited"
